According to PubChem BioAssay AID504741 (National Center for Advancing Translational Sciences (NCATS), 2011):

System: PBS pH 7.4 stability, 37 C, LC-MS/MS, 48 h
Assay: Inhibitors of Bloom's syndrome helicase: PBS Stability Profiling Assay
Conditions: at 2 µM; stronger effect = higher value
From the text: Survival of cells and the faithful propagation of the genome depend on elaborate mechanisms of detecting and repairing DNA damage. Treatment of advanced cancer relies on radiation therapy or chemotherapy, which kill cancer cells by causing extensive DNA damage. It is often found, that cancer cells develop resistance to therapy through enhanced activity of DNA repair functions; this has led to an increased interest in developing drugs that interfere with DNA repair, which could sensitize cancer cells to conventional therapy. Bloom syndrome helicase (BLM), is important in resolving abnormal DNA structures formed during replication or homologous recombination. Shutting down the expression of BLM leads to chromosomal instability and higher radiation sensitivity in cultured cells. After the completion of a qHTS campaign, secondary assays, and rounds of medicinal chemistry, a compound was identified to be further characterized through in vitro ADME assays. […]
2uM of compound is incubated in PBS buffer at pH 7; the reference compound is procaine. Compounds are incubated at 37 deg C for the pre-determined time periods and the when aliquots are removed. Samples are analyzed with LC-MS/MS.

percent remaining: 100%
SMILES: O=C(Nc1ccc(F)c(C(F)(F)F)c1)Nc1nnc(-c2ccncc2)s1
